Test results published in publication PMC5028882, “Antiviral activities of peptide-based covalent inhibitors of the Enterovirus 71 3C protease” (Scientific Reports, 2016).
Entries after “also recorded” stand apart in the source; their conditions may differ. Where two headings read alike, the source gives them in different places.

Key:
EV71 3C protease [1] = target: T1, EV71 3C protease (Human enterovirus 71, UniProt Q66478); assay: EV71 3C protease inhibition assay (chromogenic substrate succinyl-EALFQ-pNA); format: biochemical; details: EV71 3C protease 6 μM, 2 h preincubation at 25 °C, pH 7.0; read-out: Inhibitory Potency, IC50
Procedure: EV71 3C protease inhibition assays were based on a published procedure[7] and performed in a buffer containing Tris-HCl (50 mM), NaCl (150 mM), EDTA (1 mM), glycerol (10% v/v) and DTT (2 mM) at pH 7.0. The protease (6 μM) and varying inhibitor concentrations were incubated at 25 °C for 2 h. The final DMSO concentration was maintained at 2%. After that, the chromogenic peptide substrate succinyl-EALFQ-pNA (Peptides International, USA) was added to make a final concentration of 200 μM. The contents were incubated at 25 °C for 2 h. Absorbance at 405 nm was measured with a plate reader at 30 °C. All experiments were conducted in duplicates. IC50 values were derived by fitting the initial velocity against the log [inhibitor] using GraphPad Prism 5 software (USA).

[2] = Parallel artificial membrane permeability assay (PAMPA); format: in vitro ADME; details: for Papp at 4 h, 50 μM: pH 7.4, 50 μM, 4 h incubation, read-out: Permeability (P) at pH 7.4
Procedure: PAMPA was conducted by GVK Biosciences (India) using Pion PAMPA Sandwich Plates (Pion Inc., USA). Briefly: test compounds were dissolved in buffer at pH 7.4 to make a 50 μM stock solution. 200 μL was then added to the donor compartment of the plate. The plate was inverted and 200 μL of buffer (pH 7.4) was added to the acceptor compartment. After incubation (4 hours), a 50 μL sample was analyzed by UV using a spectrophotometer. Experiments were conducted in triplicates. Compound permeability (P) was calculated using the formula:
where: CA = compound concentration in the acceptor compartment at 4 h, Ceq = compound concentration at equilibrium at 4 h, A = filter area (0.3 cm^2), VA = acceptor compartment volume (200 μL), VD = donor compartment volume (200 μL), t = incubation time (14,400 s). Compounds with a P value of <10 × 10^−6 cm.s^−1 are considered to have low permeability.

[3] = tested on: EV71-infected human RD cells; assay: Antiviral cellular assay, EV71-infected RD cells, virus titre by plaque assay; format: cell-based, human enterovirus 71 (EV71); details: for Antiviral activity on EV71-infected RD cells (in words): virus titre reduction, up to 5 μM, 12 h; for EC50: Enterovirus A, read-out: EC50 for EV71 infections
Procedure: (§1) Human RD cells were cultured in DMEM/F-12 (Gibco) supplemented with 10% FBS (GE Healthcare) and the infection medium used for all infections and compound treatment contained was supplemented with 2% FBS. For the compound treatment assays, monolayers of RD cells were first infected with EV71 at a multiplicity of infection (MOI) of 1 for 1 hour at 37 °C, 5% CO2. The compounds were then introduced to the cells at different concentrations. Culture supernatant was collected at 12 hours post-treatment for determination of infectious virus titre by viral plaque assay. Each culture supernatant was 10-fold serially diluted and 100 μL was added, in triplicates, to a monolayer of RD cells in a 24-well format. The infection was allowed to proceed for 1 h at 37 °C, 5% CO2 before the virus was removed. The cells were then washed to remove unbound virus particles with PBS (pH 7.4) and overlaid with infection medium containing 0.5% agarose. The cells were incubated for 48 hours at 37 °C before they were fixed with 4% paraformaldehyde and stained with crystal violet. Plaques that formed were counted visually and the infectious virus titre was calculated, expressed as the average number of PFU per milliliter (PFU/mL) of sample. The 50% effective concentration, EC50, was determined for selected compounds by a non-linear regression graph fitting of the virus titre obtained at a minimum of 5 different compound concentrations and 0.05% DMSO was included as an untreated control.

Coxsackievirus A6 (CA6) = assay: Antiviral assay, Coxsackievirus A6-infected RD cells; format: cell-based; details: 100 nM and 1 μM, virus titre after 12 hours
Procedure: (§2) RD cells were infected with either Coxsackievirus A6 (CA6), Coxsackievirus A16 (CA16) (strain G-10, GenBank accession no. U05876), patient isolates of Coxsackievirus A6 (CA6), or Echovirus 7 (E7) and subjected to treatment with compound 9 at 100 nM or 1 μM or negative control 0.05% DMSO.
as §1, with “The cells were incubated for 48 hours at 37 °C before they were fixed with 4% paraformaldehyde and stained with crystal violet.” left out, “The 50% effective concentration, EC50, was determined for selected compounds by a non-linear regression graph fitting of the virus titre obtained at a minimum of 5 different compound concentrations and 0.05% DMSO was included as an untreated control.” left out

[4] = tested on: Coxsackievirus A16 (CA16); assay: Antiviral assay, Coxsackievirus A16-infected RD cells; format: cell-based; details: 100 nM and 1 μM, virus titre after 12 hours
Procedure: as §2
as §1, with “The cells were incubated for 48 hours at 37 °C before they were fixed with 4% paraformaldehyde and stained with crystal violet.” left out, “The 50% effective concentration, EC50, was determined for selected compounds by a non-linear regression graph fitting of the virus titre obtained at a minimum of 5 different compound concentrations and 0.05% DMSO was included as an untreated control.” left out

EV71 3C protease [5] = target: T1, EV71 3C protease; details: cited from earlier work; for IC50: EV71 3C protease (strain 5865/sin/000009), biochemical protease inhibition assay, read-out: Inhibitory Potency, IC50
Echovirus 7 (E7) = assay: Antiviral assay, Echovirus 7-infected RD cells; format: cell-based; details: 100 nM and 1 μM, virus titre after 12 hours
Procedure: as §2
as §1, with “The cells were incubated for 48 hours at 37 °C before they were fixed with 4% paraformaldehyde and stained with crystal violet.” left out, “The 50% effective concentration, EC50, was determined for selected compounds by a non-linear regression graph fitting of the virus titre obtained at a minimum of 5 different compound concentrations and 0.05% DMSO was included as an untreated control.” left out

T1 sequence (Q66478 1549-1731): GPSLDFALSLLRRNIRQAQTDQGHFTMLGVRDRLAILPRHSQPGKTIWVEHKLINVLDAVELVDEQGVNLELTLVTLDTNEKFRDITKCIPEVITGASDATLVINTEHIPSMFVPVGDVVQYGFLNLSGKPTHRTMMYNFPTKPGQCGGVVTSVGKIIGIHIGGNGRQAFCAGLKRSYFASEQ

| SMILES | IC50 (EV71 3C protease [1]) [µM] | Papp at 4 h, 50 μM [2] [×10⁻⁶ cm/s] | Antiviral activity on EV71-infected RD cells (in words) [3] | also measured |
| --- | --- | --- | --- | --- |
| CCOC(=O)/C=C/[C@H](C[C@@H]1CCNC1=O)NC(=O)[C@@H](CC(=O)[C@@H](NC(=O)c1ccc(C)nn1)C(C)C)Cc1ccc(F)cc1 [Compound 8, ethyl-(S,E)-4-(2R,5S)-2-(4-fluorobenzyl)-6-methyl-5-(6-methylpyridazine-3-carboxamido)-4-oxoheptanamido-5-(S)-2-oxopyrrolidin-3-yl-pent-2-enoate] | 3.7 ± 0.6 | 12.6 ± 0.7 | inferior compared to Rupintrivir; also recorded: failed to demonstrate significant antiviral activity | – |
| CCOC(=O)/C=C/[C@H](C[C@@H]1CCNC1=O)NC(=O)[C@@H](CC(=O)[C@@H](NC(=O)C(C)C)C(C)C)Cc1ccc(F)cc1 [Compound 11, ethyl-(S,E)-4-(2R,5S)-2-(4-fluorobenzyl)-5-isobutyramido-6-methyl-4-oxoheptanamido-5-(S)-2-oxopyrrolidin-3-yl-pent-2-enoate] | 11.7 ± 0.7 | 16.9 ± 0.8 | significantly reduced antiviral activity | – |
| CCOC(=O)/C=C/[C@H](C[C@@H]1CCNC1=O)NC(=O)[C@H](Cc1ccc(F)cc1)NC(=O)[C@@H](NC(=O)c1cc(C)on1)C(C)C [Compound 3] | 6.2 ± 0.6 | 25.1 ± 3.6 | significantly less potent than Rupintrivir | Fold less permeable than Rupintrivir ([2]; pH 7.4): approximately 2 fold |
| CCOC(=O)/C=C/[C@H](C[C@@H]1CCNC1=O)NC(=O)[C@@H](CC(=O)[C@@H](NC(=O)c1cc(C)on1)C(C)C)Cc1ccc(F)cc1 [Compound 1, Rupintrivir, reference compound] | – | 46.9 ± 4.7 | significant reduction in viral titre | Antiviral activity against Coxsackievirus A6 (in words) (Coxsackievirus A6 (CA6)): demonstrated antiviral activities; Antiviral activity against Coxsackievirus A16 (in words) [4]: demonstrated antiviral activities; Membrane permeability (in words) ([2]; pH 7.4): highly membrane permeable; IC50 (EV71 3C protease [5]): 7.3 ± 0.8 µM; Inhibition of EV71 3C protease (in words) (EV71 3C protease [5]; earlier reports): micromolar potency; Antiviral activity against Echovirus 7 (in words) (Echovirus 7 (E7)): demonstrated antiviral activities; EC50 ([3]; EV71-infected RD cells, virus titre by plaque assay): 0.016 µM |
| CCOC(=O)/C=C/[C@H](C[C@@H]1CCNC1=O)NC(=O)[C@@H](CC(=O)[C@@H](NC(=O)c1cccnn1)C(C)C)Cc1ccc(F)cc1 [Compound 4, ethyl-(S,E)-4-(2R,5S)-2-(4-fluorobenzyl)-6-methyl-4-oxo-5-pyridazine-3-carboxamidoheptanamido-5-(S)-2-oxopyrrolidin-3-yl-pent-2-enoate] | 9.3 ± 0.6 | 12.6 ± 1.8 | significantly reduced | – |
| CCOC(=O)/C=C/[C@H](C[C@@H]1CCNC1=O)NC(=O)[C@@H](CC(=O)[C@@H](NC(=O)C(C)(C)C)C(C)C)Cc1ccc(F)cc1 [Compound 10, ethyl-(S,E)-4-(2R,5S)-2-(4-fluorobenzyl)-6-methyl-4-oxo-5-pivalamidoheptanamido-5-(S)-2-oxopyrrolidin-3-yl-pent-2-enoate] | > 100 | 15 ± 2.6 | abrogation of both biochemical and cellular activity | – |
| CCOC(=O)/C=C/[C@H](C[C@@H]1CCNC1=O)NC(=O)[C@@H]1[C@@H](c2ccccc2)CCN1C(=O)[C@@H](NC(=O)c1cc(C)on1)C(C)C [Compound 2] | – | 7.1 ± 0.9 | failed to demonstrate significant antiviral activity; also recorded: weakly active | Fold less permeable than Rupintrivir ([2]; pH 7.4): approximately 7 fold; IC50 (EV71 3C protease [5]): 3.2 ± 0.5 µM; Fold more potent than Rupintrivir in the protease inhibition assay (EV71 3C protease [5]; IC50 compared with Rupintrivir): 2 fold |
| CCOC(=O)/C=C/[C@H](C[C@@H]1CCNC1=O)NC(=O)[C@@H](CC(=O)[C@@H](NC(=O)c1nnccc1C)C(C)C)Cc1ccc(F)cc1 [Compound 7, ethyl-(S,E)-4-(2R,5S)-2-(4-fluorobenzyl)-6-methyl-5-(4-methylpyridazine-3-carboxamido)-4-oxoheptanamido-5-(S)-2-oxopyrrolidin-3-yl-pent-2-enoate] | 5.2 ± 1 | 11.6 ± 2.3 | inferior compared to Rupintrivir; also recorded: failed to demonstrate significant antiviral activity | – |
| CCOC(=O)/C=C/[C@H](C[C@@H]1CCNC1=O)NC(=O)[C@@H](CC(=O)[C@@H](NC(=O)C(F)(F)F)C(C)C)Cc1ccc(F)cc1 [Compound 9] | 7.7 ± 0.8 | 32.7 ± 6.7 | exhibited antiviral activity; also recorded: potent antiviral activity | Antiviral activity against Coxsackievirus A6 (in words) (Coxsackievirus A6 (CA6)): potent antiviral activity; also recorded: demonstrated antiviral activities; Antiviral activity against Coxsackievirus A16 (in words) [4]: potent antiviral activity; also recorded: demonstrated antiviral activities; Antiviral activity against Echovirus 7 (in words) (Echovirus 7 (E7)): potent antiviral activity; also recorded: demonstrated antiviral activities; EC50 ([3]; EV71, RD): 0.065 µM |
| CCOC(=O)/C=C/[C@H](C[C@@H]1CCNC1=O)NC(=O)[C@@H](CC(=O)[C@@H](NC(=O)c1cccnc1)C(C)C)Cc1ccc(F)cc1 [Compound 6, ethyl-(S,E)-4-(2R,5S)-2-(4-fluorobenzyl)-6-methyl-5-nicotinamido-4-oxoheptanamido-5-(S)-2-oxopyrrolidin-3-yl-pent-2-enoate] | > 100 | 16.9 ± 5.2 | did not exhibit significant antiviral activity | – |
| CCOC(=O)/C=C/[C@H](C[C@@H]1CCNC1=O)NC(=O)[C@@H](CC(=O)[C@@H](NC(=O)c1ccccn1)C(C)C)Cc1ccc(F)cc1 [Compound 5, ethyl-(S,E)-4-(2R,5S)-2-(4-fluorobenzyl)-6-methyl-4-oxo-5-picolinamidoheptanamido-5-(S)-2-oxopyrrolidin-3-yl-pent-2-enoate] | 22.4 ± 3.5 | 14.9 ± 3.3 | did not exhibit significant antiviral activity | – |
